Measurements: PMC12212259, “Evaluation of AlphaFold modeling for elucidation of nanobody–peptide epitope interactions” (The Journal of Biological Chemistry, 2025)
Peptide text beside a SMILES is read from it.

Key:
[1] = target: Nb127; experiment: SPR analysis of 127-tag binding to immobilized Nb127-biotin; conditions: Biacore T200, Nb127-biotin on streptavidin chip, 127 tag 400-6.25 nM, PBS pH 7.4 + 0.05% P20, 1:1 kinetics binding model
Procedure: (§1) SPR biosensor analysis was conducted on a Biacore T200 instrument (Cytiva) using a Series S Sensor Chip SA (streptavidin; Cytiva, #29104992) to determine Nb–tag binding affinity. All binding analyses were done in degassed SPR running buffer (1X PBS at pH 7.4 plus 0.05% P20). Biotinylated Nbs (Nb6E or Nb127), produced by sortagging reaction, was captured on SA chip where streptavidin is covalently coupled to dextran matrix. Biotinylated Nb (1 μM) was immobilized on flow cell via biotin–streptavidin interaction to reach a target response value of approximately 2000 response units. A separate flow cell was capped with only SPR running buffer to use as a surface control for nonspecific binding.
(§2) Analyte samples (127-tag peptide or mutant-6E peptides) were prepared as serial dilutions in SPR running buffer. Analyte was flowed over the chip at 50 μl/min with a contact time of 60 s and a dissociation time of 120 s. A duplicate injection of one concentration and a buffer injection (blank) were used for assessing chip surface performance and double referencing, respectively. […] Kinetic constants and KD values (M) were calculated from local fittings using 1:1 kinetics binding model for peptide (analyte) binding to Nb–biotin on the BIAevaluation software (Cytiva).

[2] = tested on: Nb6E; experiment: SPR analysis of 6E variant peptides binding to immobilized Nb6E-biotin
Procedure: as §1, §2

[3] = tested on: Nb6E (A2AR-Nb6E-ALFA) on HEK293 cells; experiment: Flow cytometry competition binding against FAM-6E-C14 on HEK293 cells; parameters: species or system human; conditions: peptides 10-0.01 μM vs 10 nM FAM-6E-C14, 30 m, median AF647 fluorescence
Procedure: Human embryonic kidney 293 cells stably expressing a cell surface protein fused with Nb6E (A2AR-Nb6E-ALFA, described previously ([25])) were cultured in Dulbecco's modified Eagle's media containing 10% fetal bovine serum (Thermo; #A5256801) and 1X penicillin–streptomycin (Thermo; #15140-122). Binding assays were performed as described previously ([25]). Briefly, cells were suspended in 2% bovine serum albumin (BSA) in 1X PBS (w/v) (BSA-PBS) with variable concentrations of unlabeled variant 6E peptides (10–0.01 μM) and 10 nM fluorescein-labeled 6E peptide (FAM-6E-C14) for 30 m followed by 2x washing with BSA-PBS, and subsequent staining with antifluorescein Ab conjugated with AlexaFluor647 (1.5:1000 dilution in BSA-PBS; Jackson ImmunoResearch; #200-602-037). Cells were incubated again for 30 m, pelleted, washed, and analyzed by flow cytometry on a CytoFlex flow cytometer (Beckman Coulter). Cell labeling intensity was monitored in the FL4-APC channel. Live cells were identified and gated based on forward scatter–side scatter profile. […] Median fluorescence intensity for cell counts observed in the APC channel for each sample was calculated from histograms. Median fluorescence intensity values obtained from technical replicates of the same sample were averaged and plotted against the corresponding concentration of the variant 6E peptide.

[4] = tested on: Nb6E; conditions: cited from earlier work

| Kd [1] | rank of binding affinities (SPR) [2] | Compound | rank of binding affinities (competition binding assay) [3] | experimental binding to Nb6E (earlier work) [4] |
| --- | --- | --- | --- | --- |
| 14 nM |  | NCCCC[C@H](NC(=O)[C@H](Cc1c[nH]c2ccccc12)NC(=O)[C@H](Cc1ccccc1)NC(=O)[C@H](CC(=O)O)NC(=O)[C@H](CCC(=O)O)NC(=O)[C@H](Cc1ccccc1)NC(=O)[C@@H](N)CO)C(=O)NCC(=O)N[C@@H](CCC(=O)O)C(=O)N[C@@H](CC(=O)O)C(N)=O [127-tag] (H-SFEDFWKGED-NH2) |  |  |
|  | 6E-M9 > 6E-WT > 6E-F9 | CC[C@H](C)[C@H](NC(=O)[C@H](CCC(N)=O)NC(=O)[C@H](CCCNC(=N)N)NC(=O)[C@H](C)NC(=O)[C@H](CC(C)C)NC(=O)[C@H](CCC(=O)O)NC(=O)[C@H](CCCCN)NC(=O)[C@H](C)NC(=O)[C@H](CCC(=O)O)NC(=O)[C@H](CCC(N)=O)NC(=O)[C@H](CC(=O)O)NC(=O)[C@H](C)NC(=O)[C@@H](N)CCC(N)=O)C(=O)N[C@@H](CO)C(N)=O [6E-L9 (WT)] (H-QADQEAKELARQIS-NH2) | 6E-M9 > 6E-WT > 6E-F9 | substantially higher affinity than the 6E-A9 variant |
|  | 6E-M9 > 6E-WT > 6E-F9 | CC[C@H](C)[C@H](NC(=O)[C@H](CCC(N)=O)NC(=O)[C@H](CCCNC(=N)N)NC(=O)[C@H](C)NC(=O)[C@H](CCSC)NC(=O)[C@H](CCC(=O)O)NC(=O)[C@H](CCCCN)NC(=O)[C@H](C)NC(=O)[C@H](CCC(=O)O)NC(=O)[C@H](CCC(N)=O)NC(=O)[C@H](CC(=O)O)NC(=O)[C@H](C)NC(=O)[C@H](CCC(N)=O)NC(=O)CNC(=O)CNC(=O)CN)C(=O)N[C@@H](CO)C(N)=O [6E-M9] (H-GGGQADQEAKEMARQIS-NH2) | 6E-M9 > 6E-WT > 6E-F9 |  |
